From patent US20230119324A1, “EGFR INHIBITION TRIGGERS AN ADAPTIVE RESPONSE BY CO-OPTING ANTIVIRAL SIGNALING PATHWAYS IN LUNG CANCER” (The United States Government as represented by the …, priority 2020, published 2023)

Experiments:
[1] = tested on: EGFR mutant NSCLC cell lines; experiment: AlamarBlue cell viability assay, EGFR mutant NSCLC cell lines; format: cell-based; settings: for effect on pro-survival effect of exogenous Type I IFNs under EGFR inhibition: EGFR mutant lines, 50 ng/mL IFNα1 or IFNβ1, 72 h, Etanercept 50 µg/mL, BMS-345541 0.1 µM
Method: (§1) Cell viability assays were conducted with AlamarBlue Cell Viability Reagent from ThermoFisher (Waltham, MA), following the manufacturer’s protocol. Cells were cultured in Coming (Corning, NY) 96-well black plates with clear bottom and detected by the POLARstar Omega Microplate Reader (BMG LABTECH) (excitation at 544 nm and emission at 590 nm). At least 3 independent experiments were done.

[2] = tested on: Type I interferons (IFNα1, IFNβ1); experiment: qPCR and ELISA for Type I interferons in NSCLC cell lines; format: cell-based, human; settings: BX795 1 µM, BMS-345541 0.1 µM
Method: Total RNA was isolated by TRIzol Reagent (Fisher Scientific). cDNA Reverse Transcription was performed by using High-Capacity cDNA Reverse Transcription Kit (Applied Biosystems). PCR primers were synthesized by IDT (Coralville, IA). Each PCR reaction was carried out in triplicate in a 20 µl volume using SYBR Green Master Mix (Applied Biosystems) for 15 minutes at 95° C. for initial denaturing, followed by 40 cycles of 95° C. for 15 s and 60° C. for 60 s in ViiA 7 Real-Time PCR System (Applied Biosystems). At least three independent experiments were done. Values for each gene were normalized to expression levels of ACTB (β-Actin) mRNA. Primer sequences were as follows.
To detect IFNα and IFNβ levels in medium, cells were cultured in serum free medium and treated with indicated drugs for 48 hours. Supernatant was then collected and concentrated using a Pierce protein concentrator (Thermo-Fisher). To test IFNα and IFNβ in lysates, cell and tumor lysates were extracted using RIPA buffer. Total protein concentrations were determined by Pierce BCA Protein Assay Kit (Fisher Scientific). Then, the levels of IFNα and IFNβ protein were measured by ELISA using human IFNα ELISA kit (41100) and human IFNβ ELISA kit (41440), from PBL Assay Science (Piscataway, NJ) according to the manufacturer’s protocol.
ATCB (β-Actin) expression was the loading control.
IFNα1 and IFNβ1 mRNA levels were detected by qPCR with β-Actin as the loading control.
IFNα1 and IFNβ1 mRNA levels were detected by qPCR. β-Actin was used as the loading control. Data refers to mean ± S.E.M, n=3 independent repeated experiments. One-way ANOVA with Dunnett’s test was used to determine adjusted p value for comparison between untreated and each treated sample. *: p<0.05, **: p<0.01, ***: p<0.001. H1666 is reported to harbor IFNA1 homodeletion in COSMIC (Catalogue Of Somatic Mutations In Cancer)-v90 http://cancer.sanger.ac.uk/cosmic (Updated 5 Sep. 2019), also in Data from a CPRIT (Cancer Prevention & Research Institute of Texas)-funded NGS (next generation sequencing) project by Dr. John Minna, UT Southwestern Medical Center, and Data from Dr. Adi Gazdar, UT Southwestern Medical Center. All other cell lines used in this research were searched on those databases above and confirmed to harbor neither IFNA1 nor IFNB1 homodeletion. Western blots are representative of 3 independent experiments with similar results. Cropped images are shown. Uncropped Western blot images are shown in Source Data.
The protein concentration of IFNα1 and IFNβ1 in cell lysates were measured by ELISA. […]
IFNA1 andIFNB1 mRNA levels were tested by qPCR. IκBα-DN overexpression was detected by Western blot. […]
Referring to FIGS. 14T-U, H1975 cells were treated with 0.1 µM Afatinib for indicated time points, IFNA1 and IFNB1 mRNA levels were detected by qPCR.

IRF3 = experiment: ISRE / IFI27-ISRE luciferase reporter assay; format: cell-based; settings: EGFR mutant cells; erlotinib 0.1 µM and 1 µM BX795, 24 h
Method: (§2) Cells were plated in 48 well dishes followed by plasmid transfection with two reporters detecting activation of IRF3, ISRE-luciferase reporter or IFI27-ISRE luciferase reporter^22, using lipofectamine 2000. A dual-luciferase reporter assay system was used according to the instructions of the manufacturer (Promega, Madison WI). Firefly luciferase activity was measured in the POLARstar Omega Microplate Reader (BMG LABTECH) and normalized based on Renilla luciferase activity. Three independent experiments were done in triplicate.

TBK1 and IRF3 = experiment: Western blot for TBK1 and IRF3 activation in NSCLC cell lines; format: cell-based; settings: EGFR mutant cells; 0.1 µM erlotinib and 1 µM BX795, 24 hours
Method: (§3) Western blot and immunoprecipitation were performed according to standard protocols. Western blot results are representative of at least 3 independent experiments. EGFR (06-847) antibody was from EMD Millipore (Billerica, MA); p-EGFR (Tyr1068) (2236), p-TBK1 (Ser172) (5483), TBK1 (3504), IKKε (2905), IRF3 (11904), K63-Ub (12930), RIG-I (3743), STAT1 (9172), p-STAT1 (Tyr701) (9167), AhR (83200), LAMIN A/C (4777), STING (3337), p-STING (Ser366) (19781), PD1 (86163), PD-L1 (13684), PD-L2 (82723) and IκBα (4814) antibodies were from Cell Signaling Technology (Danvers, MA); IFNAR1 (sc-7391), IFNGR1 (sc-12755), TNFR1 (sc-8346), and β-Actin (sc-47778) were from Santa Cruz Biotechnology (Dallas, TX); TRIM32 (Mab6515) antibody was from R&D (Minneapolis, MN); p-IRF3 (Ser386) (ab76493) antibody was from Abcam (Cambridge, MA).

NF-κB = NF-κB luciferase reporter assay, TNF stimulation; format: cell-based; settings: EGFR mutant lines; 10 µg/mL Etanercept 1 h, then 10 ng/mL TNF 24 h
Method: as §2
Referring to FIG. 16G and FIG. 16H, EGFR mutant lines were transfected with an NF-κB reporter for 48 h, followed by 10 µg/mL Etanercept for 1 h and then 10 ng/mL TNF for 24 h, followed by a luciferase assay or Western blot.

[3] = tested on: HCC827 derived ER3, ER4A, ER4B, ER5; experiment: AlamarBlue assay in HCC827-derived erlotinib-resistant lines; format: cell-based; settings: 10 µg/mL Anifrolumab with erlotinib, 72 hours
Method: as §1
(§4) IFNAR1 siRNA was confirmed by Western blot.

H1975 cells = experiment: AlamarBlue assay in H1975 cells; format: cell-based; settings: 10 µg/mL Anifrolumab with 0.1 µM Afatinib, 72 hours
Method: as §1, §4

PD-L1 = experiment: Western blot for PD-L1 in NSCLC cell lines; format: cell-based; settings: HCC827 and H3255; 100 or 10 nM erlotinib 24 h, 10 µg/mL Anifrolumab
Method: as §3
PD-1, PD-L1, and PD-L2 expression was detected by Western blot. PD-L1 expression levels were partly shown above. Signalstrength was represented by symbols. -: undetected, +: weak, ++: expressed, +++: strong signals. Western blot and Immunofluorescent staining images are representative of 3 independent experiments with similar results. Cropped images are shown. Uncropped Western blot images are shown in Source Data.

STAT1 = experiment: Western blot for total and phosphorylated STAT1; format: cell-based; settings: 0.1 or 1 µM erlotinib with 10 µg/mL Anifrolumab
Method: as §3
Cell lysates were collected and subjected to Western blot for detection of total and phosphorylated STAT1 expression. β-Actin was the loading control.

EGFRwt NSCLC cell lines = experiment: AlamarBlue cell viability assay, EGFRwt NSCLC cell lines; format: cell-based; settings: 72 h
Method: as §1
Western blot confirming the silencing of IFNAR1.
Data represents mean ± S.E.M. of three independent repeated experiments. *: p<0.05, **: p<0.01, ***: p<0.001, by two-way ANOVA adjusted by Bonferroni’s correction. Western blots are representative of 3 independent experiments with similar results. Cropped images are shown. Uncropped Western blot images are shown in Source Data.

[4] = EGFR mutant cell lines, 0.1 µM erlotinib 24 h, Etanercept 10 µg/mL

## Cc1ccc2nc(NCCN)c3ncc(C)n3c2c1 [BMS-345541]
[1]; 0.1 µM erlotinib
  effect on pro-survival effect of exogenous Type I IFNs under EGFR inhibition: fail to abrogate the protective effect of type I IFNs
[2]; EGFRwt cell lines, 1 µM erlotinib 24 h
  effect on erlotinib-induced upregulation of IFN: blocks EGFR inhibition-induced upregulation of IFN

## O=C(NCCCNc1nc(Nc2cccc(NC(=O)N3CCCC3)c2)ncc1I)c1cccs1 [BX-795]
IRF3
  effect on erlotinib-induced IRF3 transcriptional activity: loss of erlotinib-induced IRF3 transcriptional activity
[1]; four EGFR mutant cell lines, 0.01 µM erlotinib and 1 µM BX795, 72 hours
  combination with EGFR inhibition in cell viability assays: synergized with EGFR inhibition
[2]; [4]
  effect on erlotinib-induced upregulation of IFN: completely suppressed erlotinib-induced upregulation of IFN
TBK1 and IRF3
  effect on EGFR inhibition-induced IRF3 phosphorylation: loss of EGFR inhibition-induced IRF3 phosphorylation

## Etanercept
NF-κB
  effect on TNF-induced activation of NF-κB: efficiently blocked TNF-induced activation of NF-κB
[1]; 0.1 µM erlotinib
  effect on pro-survival effect of exogenous Type I IFNs under EGFR inhibition: fails to block the pro-survival effects of IFNs
[2]; [4]
  effect on erlotinib-induced upregulation of IFN: failed to inhibit erlotinib induced upregulation of type I IFNs

B1: IFNα: Recombinant human IFNα1, exogenous Type I interferon (protein, UniProt P01562 24-189, looked up)
Interferon alpha-1/13: CDLPETHSLDNRRTLMLLAQMSRISPSSCLMDRHDFGFPQEEFDGNQFQKAPAISVLHELIQQIFNLFTTKDSSAAWDEDLLDKFCTELYQQLNDLEACVMQEERVGETPLMNADSILAVKKYFRRITLYLTEKKYSPCAWEVVRAEIMRSLSLSTNLQERLRRKE
[1]; EGFR mutant cell lines, 0.1 µM erlotinib, IFNα1 or IFNβ1 50 ng/mL, 72 h
  protection from erlotinib-induced cell death: protects NSCLC cells with mutant EGFR activating from cell death

B2: Anifrolumab: monoclonal antibody directed against IFNAR that inhibits the binding of Type I IFNs to its receptor (antibody, chains of the INN, looked up)
heavy: EVQLVQSGAEVKKPGESLKISCKGSGYIFTNYWIAWVRQMPGKGLESMGIIYPGDSDIRYSPSFQGQVTISADKSITTAYLQWSSLKASDTAMYYCARHDIEGFDYWGRGTLVTVSSASTKGPSVFPLAPSSKSTSGGTAALGCLVKDYFPEPVTVSWNSGALTSGVHTFPAVLQSSGLYSLSSVVTVPSSSLGTQTYICNVNHKPSNTKVDKRVEPKSCDKTHTCPPCPAPEFEGGPSVFLFPPKPKDTLMISRTPEVTCVVVDVSHEDPEVKFNWYVDGVEVHNAKTKPREEQYNSTYRVVSVLTVLHQDWLNGKEYKCKVSNKALPASIEKTISKAKGQPREPQVYTLPPSREEMTKNQVSLTCLVKGFYPSDIAVEWESNGQPENNYKTTPPVLDSDGSFFLYSKLTVDKSRWQQGNVFSCSVMHEALHNHYTQKSLSLSPG
light: EIVLTQSPGTLSLSPGERATLSCRASQSVSSSFFAWYQQKPGQAPRLLIYGASSRATGIPDRLSGSGSGTDFTLTITRLEPEDFAVYYCQQYDSSAITFGQGTRLEIKRTVAAPSVFIFPPSDEQLKSGTASVVCLLNNFYPREAKVQWKVDNALQSGNSQESVTEQDSKDSTYSLSSTLTLSKADYEKHKVYACEVTHQGLSSPVTKSFNRGEC
[3]
  sensitivity to erlotinib in secondary resistant lines: restore sensitivity to erlotinib
H1975 cells
  sensitivity to afatinib: rendered sensitive to afatinib
PD-L1
  effect on erlotinib-induced upregulation of PD-L1: abrogated
STAT1
  effect on erlotinib induced activation of STAT1: blocks erlotinib induced activation of STAT1
EGFRwt NSCLC cell lines; EGFRwt lines with Ros1 mutation, EML4/ALK fusion, Met amplification, Braf mutation, 10 µg/mL Anifrolumab
  sensitivity to erlotinib (cell viability): resulted in sensitivity to erlotinib
EGFRwt NSCLC cell lines; resistant EGFRwt/KRas cell lines, 1 µM erlotinib with 10 µg/mL Anifrolumab
  sensitivity to erlotinib (cell viability): enhanced sensitivity to erlotinib
